Experimental data reported in publication PMC11346426, “1-Deoxy-D-xylulose 5-phosphate reductoisomerase as target for anti Toxoplasma gondii agents: crystal structure, biochemical characterization and biological evaluation of inhibitors” (Biochemical Journal, 2024).
Read-outs that look alike come from different tables or passages of the source.

B1: TgDXR (Toxoplasma gondii ME49) (protein)
chain: PSTRVKRLVVLGSTGSIGKSTLEIAREFPDIFQIVGLAAGGSNLALLAEQVAAFRPQYVYLGDSSKVAELQERLNDHERSAAFPRPRLLLGDEGLAELACVPNYDILVSAIVGFKGVLPTLKALEAGKDVALANKEALVAAGPVFRCLLSTRGLLYGDQERQDRHERSHRSGDQEGDREEDTDGDRREECDKRRAKAGQKCGLLLPVDSEHSAIFQALQGVPASCYPPRKLLLTASGGPFRGRTRDELEQVTLESALKHPKWSMGAKITIDSATLMNKGLEVIEAHFAFGCPYSSIEVLVHPQAVIHSAVELRDGATLAQLGLPDMKLPIAYALTWPHRLAAPWSAGVDLTREGNLTFEKPDLNTFGCLGLAYEAGERGGVAPACLNAANEVAVERFRNKEIGFVDIEDTVRHVMALQERERDNFSDVSLQDVFDADHWARTAARAFKPRK

Columns and labels:
[1] = tested on: T. gondii ME49 tachyzoites; experiment: T. gondii in vitro growth assay ([3H]-uracil incorporation); format: cell-based, Toxoplasma gondii; details: for activity against T. gondii growth (in words): T. gondii type II ME49 strain, [3H]-uracil incorporation; for IC50: Toxoplasma gondii, T. gondii type II ME49 strain in Hs27 host cells, n = 6
Protocol: With the aim to assess the inhibitory in vitro effect on parasite growth, T. gondii growth assays were performed as described previously [[78-80]]. Compounds, previously diluted in culture media in appropriate stock solutions, were added to confluent monolayers of Hs27 cells in 96-flat well plates at various concentrations. Then, freshly harvested tachyzoites were added to the cultures at a multiplicity of infection of 1:1 (parasite/host cell ratio). As controls, untreated and uninfected Hs27 cells, 24 h pre-stimulated and T. gondii infected cells with human interferon γ (IFN γ) (300 U/ml) (Merck, Darmstadt, Germany, #I17001) and T. gondii infected cells only were employed. After 48 h incubation, proliferating toxoplasmas were labelled with 0.3 μCi/well of tritiated uracil (^3H-U; 5 mCi, Hartmann Analytic, Braunschweig, Germany, #ART1782). After 28-30 h of incubation, plates were frozen at -20°C overnight. Cells were then thawed and harvested (Basic96 Harvester; Zinsser Analytic, Skatron Instruments, Northridge, CA, U.S.A.), purified with glass fibre filters (Printed Filtermat A 102 mm × 258 mm; PerkinElmer, Waltham, MA, U.S.A.) and dried at 130°C for 15-20 min. Dried filters were then wrapped into transparent plastic covers, dunked with 10 ml scintillation cocktail (Betaplate Scint; PerkinElmer, Waltham, MA, U.S.A., #1205-440), sealed and then loaded into metal cassettes and the incorporation of ^3H-uracil into the RNA of proliferating toxoplasmas was measured using a β-counter, a liquid scintillation counter that measure the […] (Betaplate Liquid Scintillation Counter 1205; LKB-[…], Melbourne, Australia). All data sets were normalized to 100% of the positive control. The dose-response curves of the compounds were fitted by means of the statistics software GraphPad PRISMTM (Version 9.5.1; San Diego, CA, U.S.A.). The minimal concentrations of compounds required for 50% inhibition of the parasite (IC50 values) were determined by non-linear regression analysis. Pyrimethamine was used as reference anti-toxoplasma compound.

human fibroblasts Hs27 = experiment: MTT cytotoxicity assay on host cells; format: cell-based; details: concentration range 0.19–200 µM
TgDXR [2] = biological target: T1, TgDXR (Toxoplasma gondii, UniProt S8ESX0); experiment: T. gondii DXR enzyme inhibition assay (NADPH oxidation, absorption at 340 nm); format: biochemical; details: for Ki: Ki = IC50/(1 + [S]/Km), [S] = 100 µM DXP, Km = 30.58 µM
Protocol: The enzymatic assays were conducted at 30°C in 96 well plates using a total reaction volume of 150 µl containing 100 nM of purified TgDXR protein in dimeric state, 100 µM of NADPH and 4 mM of MgCl2 as cofactors, 100 µM of DXP as substrate in 50 mM HEPES buffer (pH 7.5) containing 50 µg/ml of BSA. For the screening, DXR inhibitors were tested for their inhibitory activity and their IC50 measurements at concentrations ranging from 100 µM to 3.05 nM, in dilution steps 1:2.
To optimize and to ensure the interaction of NADPH and its enzyme binding pocket, the assay solution was incubated for 10 min at 37°C. Then, the reaction was commenced with the addition of 100 µM of DXP to the complete assay mixture. The reaction was monitored by measuring the absorption at 340 nm every minute for 1 h using a microplate reader (Tecan® 200 Pro, Tecan Group, Männedorf, Switzerland). The initial velocity of the reactions were calculated, the values were then used in the software GraphPad PRISM™ (Version 9.5.1; San Diego, CA, U.S.A.) for determinations of the IC50 values.

[3] = MTT cytotoxicity assay on host cells; format: cell-based; details: human, Hs27 fibroblasts, 24 h incubation
Protocol: The method based on the reduction of the tetrazolium dye MTT [3-(4,5-dimethylthiazole-2-yl)-2,5-diphenyltetrazolium bromide] to its purple insoluble formazan by mitochondrial NAD(P)H-dependent cellular oxidoreductase enzymes in living cells, previously described by Mosmann was employed to assess the cytotoxic effects of the examined DXR inhibitors on the host cells, as previously described [[78–80]]. Briefly, Hs27 cells were cultured in 96-well plates at a concentration of 5 × 10^4/well in (IMDM, Gibco–Thermo Fisher Scientific, Waltham, MA, U.S.A., #12440053) with a volume of 100 µl per well and incubated at 37°C overnight. Then, eleven two-fold serially diluted concentrations of the investigated compounds ranging from […] were prepared and added to each well. Hs27 cells were then incubated for 24 h in humidified atmosphere of 5% CO2 in air. Controls included wells containing medium alone without cells (blank), untreated Hs27 cells, DMSO (negative control) and staurosporine (0.031, 0.062, 0.125, 0.25, 0.5, 1 µM) (Merck, Darmstadt, Germany, #S4400) as apoptosis inducer. After incubation, the culture media was replaced with 100 µl of DMEM medium without phenol (Gibco-Thermo Fisher Scientific, Waltham, MA, U.S.A., #21041025) plus 10% heat-inactivated (FBS Standard, South America origin, FBS, 2 µm sterile filtered, PAN-Biotech, Aidenbach, Germany, #P30-3306), and […] 2-mercaptoethanol (Gibco-Thermo Fisher Scientific, Waltham, MA, U.S.A., #21985023). Thereafter, the MTT reagent was added to each well and analysis conducted following the manufacture instructions (CyQuant MTT Cell Viability Assay Kit, Thermo Fisher Scientific, Waltham, MA, U.S.A., #V-13154). The absorbance was measured at 570 nm on an ELISA microplate reer (TECAN Sunrise, Männedorf, Switzerland) and the percentage of viability was calculated when compared with the untreated control. The data set was subsequently adjusted by applying blank correction. Cell viability values expressed as percentage of the negative control value were calculated as follows: %Cellviability=meanabsorbanceoftreatedwells−blank/meanabsorbanceofnegativecontrol−blank×100. The cytotoxicity of each compound was expressed as half maximal cytotoxic concentration (CC50 values) against Hs27 cells. These values were calculated by a non-linear regression using GraphPad PRISM™ statistics software package (Version 9.5.1; San Diego, CA, U.S.A.) plotting the percentage viability against the log of compound concentrations.

TgDXR [4] = biological target: T1, TgDXR; experiment: TgDXR enzyme kinetic characterization (Michaelis-Menten); format: biochemical; details: 100 nM TgDXR, substrate or cofactor varied 7.8 to 500 µM; n = 8
Protocol: (§1) To biochemically characterize the catalytic ability of the truncated TgDXR for the conversion of DXP into MEP in the presence of the cofactors Mg^2+ and NADPH, and to determine the optimum conditions for maximum enzyme activity, the enzymatic assays were monitored at 340 nm (maximal absorbance of NADPH) in different conditions.
(§2) The enzymatic activity was evaluated in fixed conditions, using 50 mM HEPES buffer containing 50 µg/ml of bovine serum albumin (BSA) containing 100 nM of purified TgDXR protein in dimeric state. In each experimental evaluation, only one parameter was varied: either the substrate (DXP) concentration (ranging from 7.8 to 500 µM), or the cofactor NADPH (ranging from 7.8 to 500 µM), or Mg^2+ concentration (ranging from 1 to 6 mM) or the pH (ranging from 5.5 to 9) (Figure 3).
(§3) For the determination of the kinetic parameters, various concentration of the substrate DXP or NADPH were employed for the determination of the apparent Km (substrate concentration that yield a half-maximal velocity) and Vmax (maximum velocity) for the enzyme. These parameters were calculated by a non-linear regression with the software GraphPad PRISM™ (Version 9.5.1; San Diego, CA, U.S.A.) plotting the initial velocity of the reactions and using the Michaelis–Menten model (Figure 3).

[5] = substrate: CC(=O)[C@@H](O)[C@H](O)COP(=O)(O)O; experiment: as above; format: biochemical, Toxoplasma gondii; details: other: 100 nM TgDXR, substrate or cofactor varied 7.8 to 500 µM; n = 8
Protocol: as §1, §2, §3

[6] = 100 nM truncated His10-TgDXR, 100 µM NADPH, 4 mM MgCl2, 100 µM DXP, pH 7.5, 30°C, n = 6, read-out: IC50 ± S.D.

Molecule	activity against T. gondii growth (in words) [1]	IC50 [1]	host cell cytotoxicity (in words) (human fibroblasts Hs27)	IC50 (TgDXR [2])	CC50 at 24 h [3]	IC50 (TgDXR [2]; [6])	Ki (TgDXR [2])	Km (TgDXR [4])	Km [5]
O=CN(O)CCCP(=O)(O)O [Compound 1, Fosmidomycin, reference compound]	no activity	> 200 µM	did not show any detectable host cytotoxicity	1.03 ± 0.21 µM	> 200 µM	–	–	–	–
CN(O)C(=O)CSC(c1ccccc1)P(=O)(O)O (stereo not drawn) [Compound 2, (((2-(hydroxy(methyl)amino)-2-oxoethyl)thio)(phenyl)methyl)phosphonic acid]	–	> 100 µM	–	–	> 200 µM	1.23 ± 0.12 µM	0.37 µM	–	–
CN(O)C(=O)CSC(c1ccc(F)c(F)c1)P(=O)(O)O (stereo not drawn) [Compound 3, ((3,4-difluorophenyl)((2-(hydroxy(methyl)amino)-2-oxoethyl)thio)methyl)phosphonic acid]	demonstrated activity	14.4 ± 1.94 µM	–	–	> 200 µM	0.64 ± 0.38 µM	0.19 µM	–	–
CN(O)C(=O)CSC(c1ccc(Cl)c(Cl)c1)P(=O)(O)O (stereo not drawn) [Compound 4, ((3,4-dichlorophenyl)((2-(hydroxy(methyl)amino)-2-oxoethyl)thio)methyl)phosphonic acid]	demonstrated activity	5.46 ± 1.22 µM	–	–	> 200 µM	0.62 ± 0.12 µM	0.19 µM	–	–
CN(O)C(=O)CSC(c1cc(F)cc(F)c1)P(=O)(O)O (stereo not drawn) [Compound 5, ((3,5-difluorophenyl)((2-(hydroxy(methyl)amino)-2-oxoethyl)thio)methyl)phosphonic acid]	demonstrated activity	56 ± 6.11 µM	–	–	> 200 µM	2.45 ± 0.54 µM	0.74 µM	–	–
COc1cc(OC)cc(C(SCC(=O)N(C)O)P(=O)(O)O)c1 (stereo not drawn) [Compound 6, ((3,5-dimethoxyphenyl)((2-(hydroxy(methyl)amino)-2-oxoethyl)thio)methyl)phosphonic acid]	demonstrated activity	12.5 ± 5.56 µM	–	–	> 200 µM	3.9 ± 1.06 µM	1.18 µM	–	–
CN(O)C(=O)COC(c1ccccc1)P(=O)(O)O (stereo not drawn) [Compound 7, ((2-(hydroxy(methyl)amino)-2-oxoethoxy)(phenyl)methyl)phosphonic acid]	demonstrated activity	48.2 ± 8.56 µM	–	–	> 200 µM	5.82 ± 1.52 µM	–	–	–
CN(O)C(=O)COC(c1ccc(F)c(F)c1)P(=O)(O)O (stereo not drawn) [Compound 8, ((3,4-difluorophenyl)(2-(hydroxy(methyl)amino)-2-oxoethoxy)methyl)phosphonic acid]	–	> 100 µM	–	–	> 200 µM	52.14 ± 0.34 µM	–	–	–
CN(O)C(=O)COC(c1ccc(Cl)c(Cl)c1)P(=O)(O)O (stereo not drawn) [Compound 9, ((3,4-dichlorophenyl)(2-(hydroxy(methyl)amino)-2-oxoethoxy)methyl)phosphonic acid]	–	> 100 µM	–	–	> 200 µM	2.44 ± 0.43 µM	0.74 µM	–	–
Cc1ccc(C(OCC(=O)N(C)O)P(=O)(O)O)cc1 (stereo not drawn) [Compound 10, ((2-(hydroxy(methyl)amino)-2-oxoethoxy)(p-tolyl)methyl)phosphonic acid]	–	> 100 µM	–	–	> 200 µM	7.68 ± 0.87 µM	2.51 µM	–	–
CCc1nc(N)nc(N)c1-c1ccc(Cl)cc1 [Pyrimethamine, pyrimethamine, reference compound]	–	0.22 ± 0.05 µM	–	–	> 100 µM	–	–	–	–
NADPH	–	–	–	–	–	–	–	51.3 ± 11.8 µM	–
B1	–	–	–	–	–	–	–	–	30.58 ± 6.33 µM
